Experimental data: patent US10583131B2, “Methods of treating pancreatic cancer” (ChemoCentryx, Inc., priority 2016, dated 2020)

What was measured:
[1] = Pharmacokinetics in Sprague-Dawley rats (i.v. and oral); format: in vivo; conditions: for clearance / bioavailability / AUC: rat, plasma; for clearance: iv, 0.5 mg/kg; for bioavailability: po 2 mg/kg, iv 0.5 mg/kg; for AUC: po, 2 mg/kg
Protocol: Compound Ib and PF-04136309 were dosed intravenously at 0.5 mg/kg and orally at 2 mg/kg, in aqueous hydroxypropyl methylcellulose. Blood samples were collected at predetermined time points after each dosing and the corresponding plasma concentrations of Compound Ib and PF-04136309 were analyzed using an LC-MS/MS method. Plasma concentration-time curves were constructed and the corresponding pharmacokinetic parameters were derived using non-compartmental analysis.
Blood (0.2 mL) was sampled through the jugular vein or cardiac puncture (for terminal point only) at pre-dose, 2, 5, 10, 15, and 30 min, 1, 2, 4, 6, and 8 hours post-dose for i.v. dosing and at pre-dose, 5, 15, and 30 min, 1, 1.5, 2, 4, 6, and 8 hours post-dose for oral dosing. Blood samples were collected into chilled polypropylene tubes containing sodium EDTA as the anticoagulant and plasma was collected through centrifugation (Eppendorf Centrifuge 5417R) at 10,000 rpm and 4° C. for 6 minutes and stored at −20° C. until analysis.
(§1) Plasma samples (50 μL) were extracted with 200 μL acetonitrile containing the internal standard on a linear shaker for 10 min and then centrifuged at 3700 g for 10 min at 4° C. (Allegra X-15R centrifuge, Beckman Coulter, Inc., Fullerton, Calif.). 100 μL of the resulting supernatant was transferred into a new plate and mixed with 100 μL 0.1% formic acid in water for LC-MS/MS analysis.
(§2) Calibration standard samples were prepared with blank Sprague-Dawley rat plasma, at 5000, 2500, 1000, 500, 100, 50, 20, 10, 4, 2 and 1 ng/mL of compound. Three levels of the standard stock solutions (1000, 100 and 10 ng/mL) were spiked separately into male Sprague-Dawley rat plasma and used as QC samples. Plasma standards and QC samples were treated identically and prepared in parallel with the plasma samples. Extracted samples were analyzed by LC-MS/MS.
Mass spectrometer acquisition and integration were performed with Applied Biosystems-Sciex Analyst software (version 1.4.2). The calibration curve was obtained through a quadratic regression and the calibration range was 2-5000 ng/mL.
(§3) Instrument: • API 3000 mass spectrometer (Applied Biosystems, Foster City, Calif.) • Agilent 1100 HPLC binary pump (Santa Clara, Calif.) • LEAP Technologies HTS Pal Autosampler (Carrboro, N.C.) • Thermo Scientific Cohesive Aria LX-2 duplexing system (Waltham, Mass.) Column: Zorbax Eclipse XDB Phenyl 2.1×50 mm (Agilent, Santa Clara, Calif.) Injection Volume: 10 μL Flow Rate: 0.60 mL/min
Ionization Mode: Electrospray (ESI). Detection Mode: Positive MRM. For each dosing route, descriptive pharmacokinetic parameters were determined by a standard non-compartmental analysis (Wagner, 1993) from the plasma concentration-time curve. Pharmacokinetic analysis was performed by using XLFit® v.4.3.1 (ID Business Solutions Inc., Alameda, Calif.) in conjunction with Microsoft Excel 2003.

[2] = Pharmacokinetics of compound Ib in male beagle dogs (i.v. and oral); format: in vivo; conditions: Dog
Protocol: The pharmacokinetic profile of compound Ib was evaluated in male beagle dogs following intravenous (i.v.) and oral (p.o.) administration. A single dose of compound Ib was dosed intravenously at 0.5 mg/kg and orally at 2 mg/kg. Blood samples were collected at predetermined time points after each dosing and the corresponding plasma samples were analyzed using an LC-MS/MS method. Plasma concentration-time curves were constructed using the plasma concentrations and the corresponding pharmacokinetic parameters were derived by non-compartmental analysis.
Six animals weighing 11.5, 9.9, 9.9, 14.6, 11.1, and 9.8 kg, respectively, were used with Compound Ib dosed intravenously at 0.5 mg/kg (the first 3 animals) and orally at 2 mg/kg (the second 3 animals).
For i.v. dosing, a solution formulation of Compound Ib was prepared in 36.8% water/31.6% propylene glycol/31.6% N,N-dimethyl acetamide at 0.5 mg/mL and each animal received 1 mL/kg. For oral dosing at 2 mg/kg, a solution formulation was prepared in 1% hydroxypropyl methylcellulose at 0.5 mg/mL and each animal received 4 mL/kg.
For dosing, blood (˜1 mL) was drawn at pre-dose and at 5, 15, and 30 min, 1, 2, 4, 8, 12, and 24 hours post-dose. Blood was sampled from the foreleg vein via butterfly catheter and then placed into chilled polypropylene tubes containing K2EDTA as the anticoagulant and kept on ice until centrifugation. Plasma was collected through centrifugation and shipped on dry ice for sample analysis.
as §1, with “0.1% formic acid/acetonitrile” for “acetonitrile”
as §2, with “blank dog” for “blank Sprague-Dawley rat”, “of Compound Ib.” for “of compound.”, “male beagle dog” for “male Sprague-Dawley rat”, “samples.” for “samples. Extracted samples were analyzed by LC-MS/MS.”
Sample analysis was performed by LC-MS/MS (details shown below). Acquisition and peak integration were performed with the Applied Biosystems-Sciex Analyst software (version 1.4.2). Calibration curves were obtained through quadratic regression with a weighting of 1/x. The calibration range was 1-5000 ng/mL.
as §3, with “Instrument: • Applied Biosystems API 3000” for “Instrument: • API 3000”, “mass spectrometer (Foster City, Calif.)” for “mass spectrometer (Applied Biosystems, Foster City, Calif.)”
Ionization Mode: Turbo Ionspray ESI Detection Mode: Positive MRM For each dosing route, descriptive pharmacokinetic parameters were determined by a standard non-compartmental analysis (Wagner, 1993) from the plasma concentration-time curve. • CL: Total body clearance • AUC: area under the curve • F: Bioavailability.
Pharmacokinetic analysis was performed by using XLFit® v.4.3.1 (ID Business Solutions Inc., Alameda, Calif.) in conjunction with Microsoft Excel 2003.

[3] = system: non-resectable pancreatic adenocarcinoma; assay: Open-label Phase Ib clinical trial of compound Ib plus FOLFIRINOX, response by RECIST 1.1; format: in vivo, patients; conditions: for Tumor control rate: 12 weeks of treatment, 150 mg twice daily plus FOLFIRINOX; for Progressive disease / Stable disease / Overall response rate: 12 weeks, plus FOLFIRINOX; for Overall response rate: RECIST 1.1, all partial responses
Protocol: Fifty-four patients age 18 years or older were enrolled on an open-label phase 1-b interventional study to evaluate the safety and efficacy of compound Ib in patients with pancreatic adenocarcinoma also receiving FOLFIRINOX chemotherapy. Dosing consisted of 150 mg tablets for oral administration once or twice daily given orally for at least 12 weeks.
Inclusion criteria included: • Histologically or cytologically confirmed non-resectable pancreatic adenocarcinoma with or without metastases • Eastern Cooperative Oncology Group (ECOG) performance status score ≤2 • Anticipated life expectancy a ≥12 weeks • Radiographically measurable disease acc. to RECIST 1.1 • Use of adequate contraception (as described in protocol) • Ability to provide written informed consent and comply with study requirements.
Exclusion criteria included: • Received other cancer treatment or investigational drug within 4 weeks prior to screening • Women who are pregnant or breastfeeding • Had major surgery within 4 weeks of first dose of study drug • Inadequate liver, renal or bone marrow function within 2 weeks of first dose • Serious concurrent illness, altered medical status or any uncontrolled medical condition • Any infection requiring antibiotic or anti-viral treatment within 4 weeks of screening • Known active HIV, HBV or HCV infection • Inability to swallow tablets • History or presence of any medical condition or disease which, in the opinion of the investigator, may place the subject at unacceptable risk for study participation. Initial 12 week overall response rate (ORR) results:
The open-label, multi-center, Phase Ib clinical trial was designed to evaluate the safety and efficacy of orally administered compound Ib plus FOLFIRINOX in 50 patients with non-resectable pancreatic cancer. Patients received 150 mg of compound Ib twice daily for 12 weeks. After 12 weeks, patients who achieved stable disease or better (as measured by Response Evaluation Criteria In Solid Tumors, or RECIST 1.1), were eligible to continue on study for at least an additional 12 weeks unless disease progression occured. Per protocol, the Eastern Cooperative Oncology Group (ECOG) performance status of patients in the trial was 0, 1 or 2.
Patients enrolled in the study had advanced non-resectable pancreatic cancer (78% of patients having metastatic disease), and an Eastern Cooperative Oncology Group (ECOG) Performance Status score of less than or equal to 2. In order to assess the initial treatment effect of compound Ib, the study provided for assessment of overall response rate (ORR) based on computerized tomography (CT) imaging following 12 weeks of treatment.
The pre-specified evaluable ORR population consists of all patients who have at least one post-baseline disease CT assessment. Response rate results at 12 weeks of treatment were as follows: […]

[4] = male, beagle, plasma, po, mean, N = 3, dosed at 2 mg/kg
[5] = ITT Patient Population (N = 50)
[6] = Pre-Specified Evaluable Patient Population (N = 41)

| Compound | Clearance compared to PF-4136309 [1] | Exposure (AUC) compared to PF-4136309 [1] | clearance [1] | bioavailability [1] | AUC [1] | Clearance compared to PF-4136309 ([2]; at comparable doses) | Exposure (AUC) compared to PF-4136309 ([2]; at comparable doses) | clearance ([2]; male, beagle, plasma, iv, mean, N = 3, dosed at 0.5 mg/kg) | AUC [2, 4] | bioavailability [2, 4] | Tumor control rate [3, 5] | Tumor control rate ([3]; Pre-Specified Evaluable Patient Population (N = 41), includes stable disease, partial response and complete response) | Progressive disease [3, 5] | Stable disease [3, 5] | Progressive disease [3, 6] | Stable disease [3, 6] | Overall response rate [3, 5] | Overall response rate [3, 6] | Tolerability ([3]; advanced pancreatic cancer patients, combined with FOLFIRINOX) | Incidence and rate of adverse events ([3]; compound Ib combined with FOLFIRINOX, versus historical FOLFIRINOX alone) |
| --- | --- | --- | --- | --- | --- | --- | --- | --- | --- | --- | --- | --- | --- | --- | --- | --- | --- | --- | --- | --- |
| Cc1cnc(C(=O)c2ccnc3[nH]ccc23)c(NS(=O)(=O)c2ccc(Cl)c(C(F)(F)F)c2)c1 [Compound Ib] | much lower | much higher | 11.5 mL/min/kg | 133% | 3910 ng·h/mL | much lower | much higher | 0.7 mL/min/kg | 67000 ng·h/mL | 143% | 32/50 (64%) | 32/41 (78%) | 9/50 (18%) | 17/50 (34%) | 9/41 (22%) | 17/41 (41%) | 15/50 (30%) | 15/41 (37%) | well tolerated | consistent with data reported historically for FOLFIRINOX alone |
| O=C(NCC(=O)N1CC[C@H](N[C@H]2CC[C@@](O)(c3ccc(-c4ncccn4)cn3)CC2)C1)c1cccc(C(F)(F)F)c1 [PF-04136309, reference compound] |  |  | 71.1 mL/min/kg | 22% | 111 ng·h/mL |  |  |  |  |  |  |  |  |  |  |  |  |  |  |  |
